Consider two molecules from patent publication US20240197652A1, “KETAMINE IN THE TREATMENT OF […]” (Awakn LS Europe Holdings Limited, priority 2021, published 2024).

The nature of the data set: Plasma ketamine, HNK and norketamine levels, CSBD subjects (Example 10). The note with it: analyte = label; for peak plasma concentration: 100 mg racemic ketamine sublingual; for time of peak plasma concentration: post-administration of 100 mg racemic ketamine sublingual. Format: in vivo, human. How it is done: A study was completed on the use of ketamine to treat CSBD. Subjects were assessed for CSBD using the Problematic Pornography Use Scale (PPUS) and were included if they received an PPUS score greater than 3. Three subjects in total were included (CSB1-CSB3). All three were administered sublingual lozenges comprising 100 mg of racemic ketamine.
Blood samples were collected from all three subjects. Blood samples were analysed to determine ketamine and ketamine metabolite levels. Assessments were conducted as below.
The treatment protocol commenced in the same way as disclosed in the ketamine in subjects with gambling disorder study completed in EXAMPLE 7, with the exceptions outlined as follows: No behavioural tasks were completed. Self-report measures completed during EXAMPLE 10 included the Emotional Intimacy Measure, the Childhood Trauma Questionnaire, the Generalised Anxiety Disorder-7 (GAD-7), the Morningness-Eveningness Questionnaire (MEQ), and the Problematic Pornography Questionnaire (PPQ), the Acceptance and Action Questionnaire, and the Psychological and Interpersonal Relationship Scales (PAIRS).

Structures are written as SMILES.

With `NC1(c2ccccc2Cl)CCCCC1=O` (racemic) [Norketamine, (R,S)-norketamine], the peak plasma concentration entry (subject CSB1) was “about 1,069 ng/ml”, the peak plasma concentration entry (subject CSB2) is given as “about 785 ng/ml” and the peak plasma concentration result (subject CSB3) is “about 923 ng/mL”. The “time of peak plasma concentration” value (subject CSB1) was determined as 80 min, the “time of peak plasma concentration” value (subject CSB2) worked out at 70 min and the “time of peak plasma concentration” value (subject CSB3) is 70 min.
As to `N[C@@]1(c2ccccc2Cl)CCC[C@@H](O)C1=O` [HNK, (2S,6S;2R,6R)-hydroxynorketamine], the peak plasma concentration entry runs as follows: (subject CSB1) “about 136 ng/ml”; (subject CSB2) “about 135 ng/ml”; (subject CSB3) “about 314 ng/mL”. Moreover, the “time of peak plasma concentration” value (subject CSB1) worked out at 80 min, the “time of peak plasma concentration” value (subject CSB2) was found to be 90 min and the “time of peak plasma concentration” value (subject CSB3) is 70 min.
